Our source for the EC50 values is patent US11078198B2 (BRISTOL-MYERS SQUIBB COMPANY, priority 2017, dated 2021).

The test concerns the target T1, human FXR (Homo sapiens, UniProt Q96RI1).
T1 construct: expressed in transfected cells; host or cells: HEK293 cells stably carrying a 5xGal4-response-element firefly luciferase reporter, transiently transfected with pcDNA3.1-Gal4-FXR
T1 sequence (Q96RI1 262-486 limits assumed): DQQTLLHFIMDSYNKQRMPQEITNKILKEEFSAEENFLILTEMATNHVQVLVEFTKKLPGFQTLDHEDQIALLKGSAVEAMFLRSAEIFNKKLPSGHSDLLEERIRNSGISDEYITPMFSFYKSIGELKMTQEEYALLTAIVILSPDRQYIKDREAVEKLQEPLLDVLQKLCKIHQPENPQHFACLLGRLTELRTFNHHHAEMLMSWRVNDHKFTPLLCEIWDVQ
The test is described as follows: transient human FXR/Gal4-luciferase reporter assay. The conditions noted are these: Gal4-hFXR transfected HEK293 reporter cells; relative to 8 μM GW-4064. Format: cell-based. The procedure:
A Gal4-hFXR fusion construct reporter system was used as the primary assay to characterize compound activity. A construct including 5 copies of the Gal4 promoter response element upstream of a firefly luciferase reporter cDNA was stably expressed in HEK293 cells. This reporter cell line was maintained in Dulbecco's Modified Eagle's medium (DMEM; Gibco) supplemented with 1% penicillin-streptomycin (P/S) solution, 500 μg/mL Zeocin and 10% charcoal/dextran-treated fetal bovine serum (cs-FBS) at 37° C. in a humidified 5% CO2 atmosphere. Another plasmid was constructed in which the human cytomegalovirus promoter in the pcDNA3.1 vector directs the expression of the cDNA encoding a fusion protein comprised of the DNA binding domain from the Gal4 transcription factor fused to the ligand binding domain from human FXR.
The day prior to transfection, the reporter cells in culture are detached from the plate with trypsin and plated into a T75 flask at a sufficient density to achieve approximately 90% confluence the next morning. The transfection reagents are prepared by separately diluting 25 μg of the pcDNA3.1-Gal4-FXR plasmid into 1.87 mL of Opti-MEM (Thermo-Fisher), and 40 μL of Lipofectamine 2000 (Thermo-Fisher) into 1.87 mL of Opti-MEM, and then adding the diluted DNA solution into the diluted Lipofectamine 2000 solution and incubating at room temperature for 15-20 minutes. The mixture is further diluted with 10 mL of a solution comprised of DMEM, 10% cs-FBS, and 1% P/S immediately prior to transferring to the cells. The maintenance culture media is aspirated from the cells and the final transfection mixture is added before the cells are incubated overnight at 37° C. in a humidified 5% CO2 atmosphere. This protocol can be scaled up, and the transiently transfected cells can be cryopreserved in an assay-ready format.
For compound testing, 100 nL of the compounds (serial dilutions in DMSO) are dispensed with an Echo acoustic dispenser (Labcyte) into the wells of a Corning/Costar clear bottom 384-well white plate. The transfected cells are harvested, counted, and diluted such that 10-25,000 cells in 25 μL are plated into each well of the 384-well compound assay plate. The compound-treated cells are incubated overnight at 37° C. in a humidified 5% CO2 atmosphere.
(Reporter assays use an easily measured gene product as a stand-in for the process of interest.)
In the case of `CC(C)c1onc(-c2c(Cl)cncc2Cl)c1C1=CC2(CCN(c3nc4c(F)cc(C(=O)O)cc4s3)CC2)C1` [Example 52, 2-(2-(3-(3,5-Dichloropyridin-4-yl)-5-isopropylisoxazol-4-yl)-7-azaspiro[3.5]non-1-en-7-yl)-4-fluorobenzo[d]thiazole-6-carboxylic acid], it took 58 nM to reach a half-maximal effect (EC50).
In the case of `O=C(O)c1cc2ccc(N3CCC4(C=C(c5c(-c6c(Cl)cccc6Cl)noc5C5CC5)C4)CC3)cc2nn1` [Example 53, 7-(2-(5-Cyclopropyl-3-(2,6-dichlorophenyl)isoxazol-4-yl)-7-azaspiro[3.5]non-1-en-7-yl)cinnoline-3-carboxylic acid], the EC50 stood at 46 nM.
In the case of `O=C(O)c1cc2ccc(N3CCC4(C=C(c5c(-c6ccccc6C(F)(F)F)noc5C5CC5)C4)CC3)cc2nn1` [Example 54, 7-(2-(5-Cyclopropyl-3-(2-(trifluoromethyl)phenyl)isoxazol-4-yl)-7-azaspiro[3.5]non-1-en-7-yl)cinnoline-3-carboxylic acid], a half-maximal response (EC50) required 177 nM.
With `O=C(O)c1cc2ccc(N3CCC4(C=C(c5c(-c6c(Cl)cncc6Cl)noc5C5CC5)C4)CC3)cc2nn1` [Example 55, 7-(2-(5-Cyclopropyl-3-(3,5-dichloropyridin-4-yl)isoxazol-4-yl)-7-azaspiro[3.5]non-1-en-7-yl)cinnoline-3-carboxylic acid] the figure was 191 nM; with `O=C(O)c1cc2ccc(N3CCC4(C=C(c5c(-c6c(F)cccc6Cl)noc5C5CC5)C4)CC3)cc2nn1` [Example 56, 7-(2-(3-(2-Chloro-6-fluorophenyl)-5-cyclopropylisoxazol-4-yl)-7-azaspiro[3.5]non-1-en-7-yl)cinnoline-3-carboxylic acid], 194 nM; with `Cc1cccc(Cl)c1-c1noc(C2CC2)c1C1=CC2(CCN(c3ccc4cc(C(=O)O)nnc4c3)CC2)C1` [Example 57, 7-(2-(3-(2-Chloro-6-methylphenyl)-5-cyclopropylisoxazol-4-yl)-7-azaspiro[3.5]non-1-en-7-yl)cinnoline-3-carboxylic acid], 227 nM.
With `O=C(O)c1cc(OC(F)F)c2cc(N3CCC4(C=C(c5c(-c6ccccc6C(F)(F)F)noc5C5CC5)C4)CC3)ccc2n1` [Example 58, 6-(2-(5-Cyclopropyl-3-(2-(trifluoromethyl)phenyl)isoxazol-4-yl)-7-azaspiro[3.5]non-1-en-7-yl)-4-(difluoromethoxy)quinoline-2-carboxylic acid] the figure was 2.3 nM.
`COc1cc(C(=O)O)cc2sc(N3CCC4(C=C(c5c(-c6c(Cl)cncc6Cl)noc5C5CC5)C4)CC3)nc12` [Example 59, 2-(2-(5-Cyclopropyl-3-(3,5-dichloropyridin-4-yl)isoxazol-4-yl)-7-azaspiro[3.5]non-1-en-7-yl)-4-methoxybenzo[d]thiazole-6-carboxylic acid] returned an EC50 of 4.1 nM.
For `O=C(O)c1cc(C(F)(F)F)cc2nc(N3CCC4(C=C(c5c(-c6c(Cl)cncc6Cl)noc5C5CC5)C4)CC3)ccc12` [Example 60, 2-(2-(5-Cyclopropyl-3-(3,5-dichloropyridin-4-yl)isoxazol-4-yl)-7-azaspiro[3.5]non-1-en-7-yl)-7-(trifluoromethyl)quinoline-5-carboxylic acid] the value was 7.2 nM; for `Cc1cc(C(=O)O)cc2sc(N3CCC4(C=C(c5c(-c6c(Cl)cncc6Cl)noc5C5CC5)C4)CC3)nc12` [Example 61, 2-(2-(5-Cyclopropyl-3-(3,5-dichloropyridin-4-yl)isoxazol-4-yl)-7-azaspiro[3.5]non-1-en-7-yl)-4-methylbenzo[d]thiazole-6-carboxylic acid], 7.2 nM; for `O=C(O)c1ccc2nc(N3CCC4(C=C(c5c(-c6c(Cl)cncc6Cl)noc5C5CC5)C4)CC3)sc2n1` [Example 62, 2-(2-(5-Cyclopropyl-3-(3,5-dichloropyridin-4-yl)isoxazol-4-yl)-7-azaspiro[3.5]non-1-en-7-yl)thiazolo[5,4-b]pyridine-5-carboxylic acid], 24 nM.
The molecule `O=C(O)c1ccc2nc(N3CCC4(C=C(c5c(-c6c(Cl)cncc6Cl)noc5C5CC5)C4)CC3)sc2c1` [Example 63, 2-(2-(5-Cyclopropyl-3-(3,5-dichloropyridin-4-yl)isoxazol-4-yl)-7-azaspiro[3.5]non-1-en-7-yl)benzo[d]thiazole-6-carboxylic acid] showed an EC50 of 62 nM.
With `COc1ccc(C(=O)O)c2ccc(N3CCC4(C=C(c5c(-c6c(Cl)cncc6Cl)noc5C5CC5)C4)CC3)nc12` [Example 64, 2-(2-(5-Cyclopropyl-3-(3,5-dichloropyridin-4-yl)isoxazol-4-yl)-7-azaspiro[3.5]non-1-en-7-yl)-8-methoxyquinoline-5-carboxylic acid] the figure was 49 nM.
For `O=C(O)c1cccc2nc(N3CCC4(C=C(c5c(-c6c(Cl)cncc6Cl)noc5C5CC5)C4)CC3)ccc12` [Example 65, 2-(2-(5-Cyclopropyl-3-(3,5-dichloropyridin-4-yl)isoxazol-4-yl)-7-azaspiro[3.5]non-1-en-7-yl)quinoline-5-carboxylic acid], the EC50 was 65 nM.
With `O=C(O)c1ccc(N2CCC3(C=C(c4c(-c5c(Cl)cncc5Cl)noc4C4CC4)C3)CC2)nc1` [Example 66, 6-(2-(5-Cyclopropyl-3-(3,5-dichloropyridin-4-yl)isoxazol-4-yl)-7-azaspiro[3.5]non-1-en-7-yl)nicotinic acid] the figure was 342 nM.
Molecule `O=C(O)c1ccc(N2CCC3(C=C(c4c(-c5c(Cl)cc(F)cc5Cl)noc4C4CC4)C3)CC2)nc1` [Example 67, 6-(2-(5-Cyclopropyl-3-(2,6-dichloro-4-fluorophenyl)isoxazol-4-yl)-7-azaspiro[3.5]non-1-en-7-yl)nicotinic acid] registered an EC50 of 493 nM.
For `O=C(O)c1cc(F)c2nc(N3CCC4(C=C(c5c(-c6c(F)cncc6F)noc5C5CC5)C4)CC3)sc2c1` [Example 68, 2-(2-(5-Cyclopropyl-3-(3,5-difluoropyridin-4-yl)isoxazol-4-yl)-7-azaspiro[3.5]non-1-en-7-yl)-4-fluorobenzo[d]thiazole-6-carboxylic acid] the value was 442 nM.
With `COc1cncc(F)c1-c1noc(C2CC2)c1C1=CC2(CCN(c3nc4c(F)cc(C(=O)O)cc4s3)CC2)C1` [Example 69, 2-(2-(5-Cyclopropyl-3-(3-fluoro-5-methoxypyridin-4-yl)isoxazol-4-yl)-7-azaspiro[3.5]non-1-en-7-yl)-4-fluorobenzo[d]thiazole-6-carboxylic acid] the figure was 730 nM.
With `COc1cc(C(=O)O)c2nc(N3CCC4(C=C(c5c(-c6c(Cl)cncc6Cl)noc5C5CC5)C4)CC3)sc2c1` [Example 70, 2-(2-(5-Cyclopropyl-3-(3,5-dichloropyridin-4-yl)isoxazol-4-yl)-7-azaspiro[3.5]non-1-en-7-yl)-6-methoxybenzo[d]thiazole-4-carboxylic acid] the figure was 4400 nM; with `COc1cc(C(=O)O)cc2sc(N3CCC4(C=C(c5c(-c6ccccc6C(F)(F)F)noc5C5CC5)C4)CC3)nc12` [Example 71, 2-(2-(5-Cyclopropyl-3-(2-(trifluoromethyl)phenyl)isoxazol-4-yl)-7-azaspiro[3.5]non-1-en-7-yl)-4-methoxybenzo[d]thiazole-6-carboxylic acid], 9.4 nM; with `CCOc1cc(C(=O)O)nc2ccc(N3CCC4(C=C(c5c(-c6ccccc6C(F)(F)F)noc5C5CC5)C4)CC3)cc12` [Example 72, 6-(2-(5-Cyclopropyl-3-(2-(trifluoromethyl)phenyl)isoxazol-4-yl)-7-azaspiro[3.5]non-1-en-7-yl)-4-ethoxyquinoline-2-carboxylic acid], 10 nM.
Molecule `O=C(O)c1cc(OC(F)F)c2cc(N3CCC4(C=C(c5c(-c6c(Cl)cncc6Cl)noc5C5CC5)C4)CC3)ccc2n1` [Example 73, 6-(2-(5-Cyclopropyl-3-(3,5-dichloropyridin-4-yl)isoxazol-4-yl)-7-azaspiro[3.5]non-1-en-7-yl)-4-(difluoromethoxy)quinoline-2-carboxylic acid] displayed an EC50 of 16 nM.
With `O=C(O)c1cc(OC(F)F)c2cc(N3CCC4(C=C(c5c(-c6ccncc6Cl)noc5C5CC5)C4)CC3)ccc2n1` [Example 74, 6-(2-(3-(3-Chloropyridin-4-yl)-5-cyclopropylisoxazol-4-yl)-7-azaspiro[3.5]non-1-en-7-yl)-4-(difluoromethoxy)quinoline-2-carboxylic acid] the figure was 38 nM.

Broadly, the EC50 is the concentration at which the effect is half-maximal.
